From ChEMBL document CHEMBL5303304, “EUbOPEN Chemogenomics Library - IncuCyte” (2023)

What was measured:
Assay type in all cases: toxicity, cell-based
Fibroblast = assay: Incucyte cell viability with human fibroblast; conditions: 10 µM, compound concentration 10 uM
U2OS = assay: Incucyte cell viability with U2OS; conditions: human, 10 µM, compound concentration 10 uM
HEK-293T = assay: Incucyte cell viability with HEK293T; conditions: human, 10 µM, compound concentration 10 uM
Note: unitless GR value; below 1 slowed growth and below 0 cell loss.

Row | Structure (SMILES) | Growth Rate (Fibroblast; 0 h, replicate number 1) | Growth Rate (Fibroblast; 6 h, replicate number 2) | Growth Rate (Fibroblast; 12 h, replicate number 1) | Growth Rate (Fibroblast; 12 h, replicate number 2) | Growth Rate (Fibroblast; 24 h, replicate number 1) | Growth Rate (U2OS; 6 h, replicate number 2) | Growth Rate (U2OS; 12 h, replicate number 1) | Growth Rate (U2OS; 12 h, replicate number 2) | Growth Rate (U2OS; 18 h, replicate number 1) | Growth Rate (U2OS; 18 h, replicate number 2) | Growth Rate (U2OS; 24 h, replicate number 1) | Growth Rate (U2OS; 24 h, replicate number 2) | Growth Rate (HEK-293T; 6 h, replicate number 1) | Growth Rate (HEK-293T; 6 h, replicate number 2) | Growth Rate (HEK-293T; 12 h, replicate number 1) | Growth Rate (HEK-293T; 12 h, replicate number 2) | Growth Rate (HEK-293T; 18 h, replicate number 1) | Growth Rate (HEK-293T; 18 h, replicate number 2) | Growth Rate (HEK-293T; 24 h, replicate number 1) | Growth Rate (HEK-293T; 24 h, replicate number 2) | other results
1 | Cn1cc(-c2ccc3occ(-c4cccc(-c5ccncc5)c4)c3n2)cn1 | 0.22 | -0.75 | -0.8 | 0.4 | 0.25 | 0.44 | 0.6 | 0.51 | 0.65 | 0.73 | 0.7 | 0.87 | -0.45 | -0.34 | -0.46 | 0 | -0.15 | 0.33 | 0.35 | 0.52 | Growth Rate (Fibroblast; 18 h, replicate number 1): 0.07; Growth Rate (Fibroblast; 18 h, replicate number 2): 0.54; Growth Rate (Fibroblast; 24 h, replicate number 2): 0.73; Growth Rate (U2OS; 0 h, replicate number 2): 0.89; Growth Rate (U2OS; 6 h, replicate number 1): -0.24
2 | CCN1/C(=C/C(C)=O)Sc2ccc(OC(C)=O)cc21 |  | -0.62 |  |  | 0.91 | 0.95 | 0.91 | 0.62 | 1 | 0.94 | 0.98 | 0.9 | -0.36 | 0.16 | 0.1 | 0.67 | 0.02 | 0.66 | 0.09 | 0.67 | Growth Rate (Fibroblast; 0 h, replicate number 2): 0.08; Growth Rate (U2OS; 0 h, replicate number 1): 0.39; Growth Rate (U2OS; 0 h, replicate number 2): -0.86
3 | C#Cc1cnc2[nH]cc(-c3cccc4c3CCN4C(=O)[C@@H]3CCCN3C#N)c2c1 | -1 | -1 | -0.63 | -0.69 | -0.36 | 0.45 | -0.58 | -0.19 | -0.68 | -0.52 | -0.58 | -0.56 | -0.95 | -0.98 | -0.75 | -0.78 | -0.46 | -0.5 | -0.29 | -0.34 | Growth Rate (Fibroblast; 6 h, replicate number 1): -0.83; Growth Rate (Fibroblast; 18 h, replicate number 1): -0.48; Growth Rate (Fibroblast; 18 h, replicate number 2): -0.58; Growth Rate (Fibroblast; 24 h, replicate number 2): -0.41; Growth Rate (U2OS; 0 h, replicate number 1): 0.82; Growth Rate (U2OS; 6 h, replicate number 1): 0.06
4 | Cl.O=C(NCCN1CCC2(CC1)C(=O)NCN2c1cccc(F)c1)c1ccc2ccccc2c1 | -1 | -0.05 | -0.27 | -0.26 | -0.27 | 0.73 | 0.24 | 0.25 | -0.13 | 0.23 | -0.24 | 0.17 | -0.37 | -0.93 | 0.06 | -0.68 | 0.22 | -0.32 | 0.34 | -0.14 | Growth Rate (Fibroblast; 6 h, replicate number 1): -0.03; Growth Rate (Fibroblast; 18 h, replicate number 1): -0.19; Growth Rate (Fibroblast; 18 h, replicate number 2): -0.07; Growth Rate (Fibroblast; 24 h, replicate number 2): -0.14; Growth Rate (U2OS; 0 h, replicate number 1): -0.95; Growth Rate (U2OS; 0 h, replicate number 2): -0.98; Growth Rate (U2OS; 6 h, replicate number 1): 0.46
